Holding throughout (assay type): cell-based
The test system of assay [1] is BHK-21 cells. The assay is described as follows: Anti-fibrosis activity test: inhibition of BHK-21 cell proliferation (CCK-8). To be noted: Mesocricetus auratus, BHK-21, 48 h, CCK-8, 48 hours after administration. In outline: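 BHK-21 cells seeded at 2×10^4 cells/mL, allowed to adhere 24 h at 37° C, 5% CO2, then exposed to compounds at graded concentrations in triplicate for 48 h. CCK-8 added for 2 h and absorbance read at 450 nm; inhibition rate taken as (1−Ai/Ao)×100% and IC50 fitted.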

Assay [2] has as its system human lung fibroblasts HFL1. In words: Anti-fibrosis activity test: inhibition of proliferation of human lung fibroblasts HFL1 (CCK-8). To be noted: Homo sapiens, HFL1, 48 h, human lung fibroblasts HFL1, CCK-8, 48 hours. In outline: (§1)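 A CCK-8 proliferation assay was run: cells at 2×10^4 cells/mL, adherent for 24 h, then incubated 48 h at 37° C with compound dilutions. A450 was recorded 2 h after CCK-8 addition and converted to percent inhibition versus blank for IC50 determination.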

In assay [3] the test system is human hepatic stellate cells LX-2. The assay is described as follows: Anti-fibrosis activity test: inhibition of proliferation of human hepatic stellate cells LX-2 (CCK-8). To be noted: Homo sapiens, 48 h, human hepatic stellate cells LX-2, CCK-8, 48 hours. In outline:
as §1

Assay [4] has as its system human fibrosarcoma cells HT-1080. In words: Anti-fibrosis activity test: inhibition of proliferation of human fibrosarcoma cells HT-1080 (CCK-8). To be noted: Homo sapiens, HT-1080, 48 h, human fibrosarcoma cells HT-1080, CCK-8, 48 hours. In outline: as §1
In assay [5] the test system is human dermal fibroblasts CCC-ESF-1. The assay is described as follows: Anti-fibrosis activity test: inhibition of proliferation of human dermal fibroblasts CCC-ESF-1 (CCK-8). To be noted: Fibroblast; human dermal fibroblasts CCC-ESF-1, CCK-8, 48 hours. In outline:
as §1

Assay [6] has as its system human embryonic lung fibroblast IMR-90. In words: Anti-fibrosis activity test: inhibition of proliferation of human embryonic lung fibroblast IMR-90 (CCK-8). To be noted: human embryonic lung fibroblast IMR-90, CCK-8, 48 hours. In outline:
as §1

In assay [7] the test system is cardiac fibroblast RAT-iCell-C002. In words: Anti-fibrosis activity test: inhibition of proliferation of cardiac fibroblast RAT-iCell-C002 (CCK-8). To be noted: Cardiac fibroblast, 48 h, cardiac fibroblast RAT-iCell-C002, CCK-8, 48 hours. In outline: as §1
Assay [8] concerns NF-κB. In words: Immunological activity test: inhibition of NF-κB activity. To be noted: initial concentration of 30 μM; a/b isomers given as first/second symbol; read-out: IC50 (μM), inhibitory activity against NF-κB. In outline: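 Single-point testing at 30 μM preceded IC50 determination.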
In assay [9] the test system is mouse macrophages (RAW264.7). The assay is described as follows: Lipopolysaccharide-induced NO secretion in macrophages (Griess). To be noted: Mus musculus, RAW264.7, 24 h, RAW264.7, LPS 1 μg/ml, a/b isomers given as first/second symbol, read-out: IC50 (μM), inhibition of lipopolysaccharide-induced NO secretion in macrophages. In outline:
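Absorbance at 548 nm after Griess reagent addition to culture supernatant gave NO content; inhibition rate was derived relative to blank control. Cells were mouse RAW264.7 macrophages exposed to compounds and 1 μg/ml LPS for 24 hours.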

This is an account of results in patent US11040028B2, “Penicinotam derivative, preparation method and use thereof” (OCEAN UNIVERSITY OF CHINA, priority 2017, dated 2021).

SMILES strings stand for the structures. Bounds are passed on as bounds.

With `O=C1c2c(n(Cc3ccccc3Br)c3ccccc3c2=O)-c2cccn21` [Compound 612a, 4-(2-Bromobenzyl)-9H-pyrrolizino[1,2-b]quinoline-9,10(4H)-dione], the IC50 in assay [1], in [2], in assay [3], in assay [4], in assay [5] and in assay [6] was 0.05 to 5 mM each time. The IC50 is 0.05 to 5 mM in assay [7], 1 to 10 µM in assay [8] and 10 to 50 µM in [9].

Consider `O=C1c2c(nc3ccccc3c2OCc2ccccc2Br)-c2cccn21` [Compound 612b, 9-((2-bromobenzyl)oxy)-10H-pyrrolizino[1,2-b]quinolin-10-one], for which the IC50 in assay [1], in [2], in assay [3], in assay [4], in assay [5] and in assay [6] was 0.05 to 5 mM throughout. Moreover, the IC50 lay in the range of 0.05 to 5 mM in [7], 1 to 10 µM in assay [8] and 10 to 50 µM in assay [9].

For the compound `O=C1c2c(n(Cc3ccc(Cl)c(Cl)c3)c3ccccc3c2=O)-c2cccn21` [Compound 613a, 4-(3,4-Dichlorobenzyl)-9H-pyrrolizino[1,2-b]quinoline-9,10(4H)-dione], the IC50 is under 0.05 mM in [1]; 0.05 to 5 mM in [2]; 0.05 to 5 mM in assay [3]; 0.05 to 5 mM in assay [4]; 0.05 to 5 mM in assay [5]; 0.05 to 5 mM in assay [6]. In addition, the IC50 in [7] is 0.05 to 5 mM; in [8], 1 to 10 µM; in [9] it was 10 to 50 µM.

Turning to `O=C1c2c(nc3ccccc3c2OCc2ccc(Cl)c(Cl)c2)-c2cccn21` [Compound 613b, 9-((3,4-dichlorobenzyl)oxy)-10H-pyrrolizino[1,2-b]quinolin-10-one], the IC50 in assay [1], in [2], in [3], in assay [4], in assay [5] and in assay [6] was 0.05 to 5 mM throughout. For the same compound, the IC50 in assay [7] lay in the range of 0.05 to 5 mM; in assay [8] it was 1 to 10 µM; in assay [9] it was 10 to 50 µM.

For `O=C1c2c(n(Cc3c(Cl)cccc3Cl)c3ccccc3c2=O)-c2cccn21` [Compound 614a, 4-(2,6-Dichlorobenzyl)-9H-pyrrolizino[1,2-b]quinoline-9,10(4H)-dione], the IC50 in assay [1] is 0.05 to 5 mM; in [2] it was 0.05 to 5 mM; in assay [3] it was 0.05 to 5 mM; in [4], under 0.05 mM; in [5] it was 0.05 to 5 mM; in assay [6], 0.05 to 5 mM. In addition, the IC50 in [7] is 0.05 to 5 mM; in assay [8], 1 to 10 µM; in [9], 10 to 50 µM.

Consider `O=C1c2c(nc3ccccc3c2OCc2c(Cl)cccc2Cl)-c2cccn21` [Compound 614b, 9-((2,6-dichlorobenzyl)oxy)-10H-pyrrolizino[1,2-b]quinolin-10-one], for which the IC50 in [1], in [2], in assay [3], in assay [4], in [5] and in assay [6] was 0.05 to 5 mM throughout. Moreover, the concentration for half-maximal inhibition (IC50) in assay [7] was in the range of 0.05 to 5 mM; in assay [8], 1 to 10 µM; in [9], 10 to 50 µM.

Consider `O=C1c2c(n(Cc3c(F)cccc3F)c3ccccc3c2=O)-c2cccn21` [Compound 615a, 4-(2,6-Difluorobenzyl)-9H-pyrrolizino[1,2-b]quinoline-9,10(4H)-dione], for which the half-maximal inhibitory concentration (IC50) in assay [1], in assay [2], in assay [3], in assay [4], in assay [5] and in assay [6] was 0.05 to 5 mM each time. Moreover, the IC50 in assay [7] was 0.05 to 5 mM; in assay [8], 0.1 to 1 µM; in assay [9], 10 to 50 µM.

For the compound `O=C1c2c(nc3ccccc3c2OCc2c(F)cccc2F)-c2cccn21` [Compound 615b, 9-((2,6-difluorobenzyl)oxy)-10H-pyrrolizino[1,2-b]quinolin-10-one], the IC50 in assay [1], in assay [2], in assay [3], in assay [4], in [5] and in [6] was 0.05 to 5 mM in each case. The figures for the IC50 in [7], in [8] and in assay [9] were 0.05 to 5 mM, 10 to 50 µM and 10 to 50 µM, respectively.

Turning to `N#Cc1ccc(F)cc1Cn1c2c(c(=O)c3ccccc31)C(=O)n1cccc1-2` [Compound 616a, 2-((9,10-Dioxo-9H-pyrrolizino[1,2-b]quinolin-4(10H)-yl)methyl)-4-fluorobenzonitrile], the half-inhibitory concentration (IC50) in [1], in [2], in [3], in assay [4], in [5] and in assay [6] was 0.05 to 5 mM throughout. The figures for the IC50 in assay [7], in assay [8] and in assay [9] were 0.05 to 5 mM, 0.1 to 1 µM and 10 to 50 µM, respectively.

On to `N#Cc1ccc(F)cc1COc1c2c(nc3ccccc13)-c1cccn1C2=O` [Compound 616b, 4-fluoro-2-(((10-oxo-10H-pyrrolizino[1,2-b]quinolin-9-yl)oxy)methyl)benzonitrile], for which the IC50 in assay [1], in assay [2], in assay [3], in assay [4], in [5] and in [6] was 0.05 to 5 mM in each case. The IC50 in assay [7] was 0.05 to 5 mM; in [8] it was 10 to 50 µM; in [9], 1 to 10 µM.

As for `N#Cc1ccccc1-c1ccc(Cn2c3c(c(=O)c4ccccc42)C(=O)n2cccc2-3)cc1` [Compound 648a, 4′-((9,10-Dioxo-9H-pyrrolizino[1,2-b]quinolin-4(10H)-yl)methyl)-[1,1′-biphenyl]-2-carbonitrile], the IC50 in assay [1], in assay [2], in [3], in assay [4], in [5] and in assay [6] was 0.05 to 5 mM each time. Moreover, the IC50 in assay [7] fell in the range of 0.05 to 5 mM; in [8], 1 to 10 µM; in assay [9], 10 to 50 µM.

As to `N#Cc1ccccc1-c1ccc(COc2c3c(nc4ccccc24)-c2cccn2C3=O)cc1` [Compound 648b, 4′-(((10-oxo-10H-pyrrolizino[1,2-b]quinolin-9-yl)oxy)methyl)-[1,1′-biphenyl]-2-carbonitrile], the IC50 in assay [1], in assay [2], in [3], in assay [4], in [5] and in assay [6] was 0.05 to 5 mM each time. Besides, the results for the IC50 in [7], in assay [8] and in [9] were 0.05 to 5 mM, 1 to 10 µM and 10 to 50 µM, respectively.

As for `O=C1c2c(n(Cc3ccc(-c4ccccc4)cc3)c3ccccc3c2=O)-c2cccn21` [Compound 649a, 4-([1,1′-Biphenyl]-4-ylmethyl)-9H-pyrrolizino[1,2-b]quinoline-9,10(4H)-dione], the IC50 in [1], in [2], in assay [3], in assay [4], in assay [5] and in assay [6] was 0.05 to 5 mM throughout. In addition, the IC50 in assay [7] was 0.05 to 5 mM; in assay [8] it was 0.1 to 1 µM; in assay [9], 10 to 50 µM.

On to `O=C1c2c(nc3ccccc3c2OCc2ccc(-c3ccccc3)cc2)-c2cccn21` [Compound 649b, 9-([1,1′-biphenyl]-4-ylmethoxy)-10H-pyrrolizino[1,2-b]quinolin-10-one], for which the IC50 in assay [1], in assay [2], in [3], in assay [4], in [5] and in assay [6] was 0.05 to 5 mM throughout. Also, the IC50 was in the range of 0.05 to 5 mM in [7], 10 to 50 µM in assay [8] and 10 to 50 µM in [9].

Turning to `CS(=O)(=O)n1c2c(c(=O)c3ccccc31)C(=O)n1cccc1-2` [Compound 650a, 4-(Methylsulfonyl)-9H-pyrrolizino[1,2-b]quinoline-9,10(4H)-dione], the IC50 in [1] is under 0.05 mM; in assay [2] it was 0.05 to 5 mM; in assay [3], 0.05 to 5 mM; in assay [4], 0.05 to 5 mM; in assay [5], 0.05 to 5 mM; in [6] it was 0.05 to 5 mM. In addition, the IC50 lay in the range of 0.05 to 5 mM in assay [7], 1 to 10 µM in assay [8] and 1 to 10 µM in assay [9].
